Read-outs that look alike come from different tables or passages of the source.
Assays:
H3K4me2 levels in cells = system: H3K4me2 levels in cells; design: method as in PMID 38742921; conditions: cited from earlier work
LSD1 [1] = system: LSD1; design: method as in PMID 38742921; conditions: cited from earlier work
[2] = biological target: T1, LSD1-HDAC1-CoREST complex (Homo sapiens, UniProt O60341); test: LSD1 HRP-coupled demethylase assay, SP2509/SP2577 analogues; format: biochemical; conditions: LSD1 enzymatic activity, complex 50 nM, HRP assay; read-out: LSD1-HDAC1-CoREST IC50
T1 construct: full length native LSD1 (UniProt ID: O60341); made in house; host or cells: HEK 293F cells (co-transfection, pcDNA3 vectors)
Description: The analogues synthesised were then tested for their ability to inhibit LSD1 using purified LSD1-HDAC1-CoREST complex (Fig. 2B). We used an established fluorescent read out horseradish peroxidase (HRP) assay to monitor LSD1 enzymatic activity in the CoREST complex[8] (see ESI ^† for full details).
2. Supplementary Information: Biology
2.1. LSD-HDAC1-CoREST expression and purification
Lysis Buffer (Buffer A) Wash Buffer (Buffer B)
• 50 mM Tris/Cl pH 7.5 • 50 mM Tris/Cl pH 7.5
• 50 mM Potassium Acetate • 50 mM Potassium Acetate […]
Cleavage Buffer (Buffer C) Gel Filtration Buffer (Buffer D)
• 50 mM Tris/Cl pH 7.5 Filtered at vacuum.
• 50 mM Potassium Acetate • 50 mM Tris/Cl pH 7.5
• 5 % v/v Glycerol • 50 mM Potassium Acetate
• 0.5 mM tris(2- • 0.5 mM TCEP carboxyethyl)phosphine (TCEP)
The CoREST ternary complex was comprised of full length native LSD1 (UniProt ID: O60341), full length HDAC1 (UniProt ID: Q13547) and N-terminally truncated RCOR1 (86-485aa) (UniProt ID:
Q9UKL0). Protein constructs were cloned into pcDNA3 vector. The RCOR1 constructs contained an N-terminal (His)10(Flag)3 tag followed by a Tev protease cleavage site. The constructs for ternary complex were co-transfected into suspension-grow HEK 293F cells (Thermofisher Scientific) with polyethylenimine (PEI) (Sigma) and harvested after 48 hours. This section of the procedure was carried out as described previously in literature.11,12
Cell pellets from 1.2 L culture were defrosted, and buffer A (30 mL) was added. The solution was sonicated (Soniprep 150) in an beaker of ice using a 9 mm probe at 10 ampules; operated with 10 […]
2.2. SP2509/SP2577 analogues LSD1 HRP-coupled demethylase assay protocol The commercial reagents for the assay were HRP and Amplex® Ultrared, which are available to purchase from ThermoFisher (31490) and Invitrogen (10737474), respectively. HRP was made up to 8 mg/mL stock solution in 1xPBS buffer, divided into 10 µL aliquots, snap-frozen in liquid nitrogen and stored at -80 °C. Amplex® Ultrared was made up to 10 mM solution in DMSO, divided into 20 µL aliquots and wrapped in foil, away from light and stored at -20 °C. For each assay experiment, CoREST complex was diluted to 500 nM in assay buffer (20 mM HEPES pH 7.5 and 50 mM NaCl).
HRP was defrosted by diluting each aliquot in 90 µL 1xPBS solution, making a 0.8 mg/mL solution.
Amplex® Ultrared was made up to 200 µM in assay buffer. HRP and Amplex® Ultrared were pre-mixed before addition to the plate. H3K4Me2 substrate (4 mM in deionised water) was diluted to 300 µM in assay buffer. All stocks were stored on ice during assay preparation.
The assay was carried out using a ‘black well’ 96 well plate (Corning no. 3915) in a reaction volume of 100 μL. The final concentrations in the assay were as follows: 50 nM CoREST complex, 10 μM Amplex® UltraRed, 0.04 mg/mL HRP and 15 μM H3K4Me2 peptide substrate. The final DMSO concentration in each well was 1.1 %. Three wells of each experiments were designated ‘background controls’ and contained 85 μL assay buffer, premixed Amplex® UltraRed and HRP (10 µL) and H3K4Me peptide substrate (300 μM, 5 µL).
A stock solution of inhibitor (1 -5 mM in DMSO) was subjected to an inhibitor dilution series, in Eppendorf tubes, in 100 % DMSO. Each new inhibitor stock (4 μL) was diluted in assay buffer (1 in 75) within a new Eppendorf set with assay buffer (20 mM HEPES pH 7.5 and 50 m M NaCl), ensuring the percentage of DMSO was consistent throughout the series. To each well of interest, Inhibitor in assay buffer (75 μL) was added, and CoREST complex (500 nM, 10 µL) was added thereafter. The plate was placed on a rocker and pre -incubated for 30 mins. To each well, premixed Amplex® UltraRed and HRP (10 µL) was added before H3K4Me 2 peptide substrate in assay buffer solution (300 μM, 5 µL) was added to the wall of the plate. The plate was covered in foil and spun down for one minute before being placed in the plate reader. The final percentage concentration of DMSO in […]

LSD1 [3] = conditions: cited from earlier work

In the case of C/C(=N\NC(=O)c1cccc(S(=O)(=O)N2CCN(C)CC2)c1)c1cc(Cl)ccc1O [SP2577], the “H3K4me2 levels in cells” value (H3K4me2 levels in cells) is listed as “failed to increase H3K4me2 levels”, the “ability to increase H3K4me2 on peptides and nucleosomes” value (LSD1 [1]) is listed as “no effect” and the IC50 [2] is listed as 306 nM. The IC50 (LSD1 [3]; read-out: LSD1 IC50) was 1330 nM and the IC50 (LSD1 [3]; read-out: LSD1 mean IC50) was 127 nM.
